Results: US12507721B2, “Ready-to-use parenteral nutrition formulation” (BAXTER INTERNATIONAL INC., priority 2021, dated 2025)
Each block holds one compound with its values, some of them ahead of it.

Legend:
[1] = Studies of vitamin B12 in lipid emulsions irrespective of oil source, pH or stabilizing agent; format: physicochemical
Method: (storage for 3 months at 40° C.), even though hydroxocobalamin seems to remain relatively stable for about 6 months at 40° C.

[2] = Selenium stability in trace element solutions with selenate, selenomethionine or selenite; settings: for selenium concentration during storage: TE formulation pH 2.2, heat sterilized, conditions not optimized for DO, FIGS. 9-11
Method: (§1) Timepoint 0 corresponds to the results of TE dosage right after sterilization. […] Timepoints 1, 3 and 6 correspond to the results of TE dosage after 1 month, 3 months and 6 months storage at 40° C./25% RH.
as §1, §1
For the three tested solutions containing different forms of selenium, the selenium is mixed with other TE (Zn, Cu, Mn, F, I, Mo, Cr, Fe), which were introduced as chloride salts. The solutions were acidified to pH 2.2 using malic acid and underwent terminal heat sterilization prior to storage.

[3] = Vitamin stability in 35% glucose solution during sterilization and storage; format: physicochemical; settings: for Unsterilized T0 concentration / T1M40° C. concentration / T3M40° C. concentration / Cycle 3 T0 concentration / T6M40° C. concentration / Cycle 4 T0 concentration: 35% glucose solution; for T1M40° C. concentration: 1 month at 40° C.; for T3M40° C. concentration: 3 months at 40° C.; for Cycle 3 T0 concentration: C0 = 25 minutes; for Cycle 3 T0 concentration / Cycle 4 T0 concentration: after sterilization; for T6M40° C. concentration: 6 months at 40° C., B12 value (*) is the sum of cyanocobalamin and hydroxocobalamin; for Cycle 4 T0 concentration: C0 = 19 minutes
Method: For testing the stability of vitamin B12 in formulation as they are typically used in parenteral nutrition, a 35% glucose solution, a 14.2% amino acid formulation such as found, for example, in Olimel N9E (Baxter), and a 20% lipid emulsion such as found in Clinoleic 20% (Baxter) were supplemented with different vitamin combinations which always included vitamin B12. KCl was added into the glucose solution to understand if it has an effect on the stability of vitamin B12. Vitamin B1 was introduced as thiamin HCl. Ascorbyl palmitate was added to the lipid emulsion formulation as a stabilizing agent due to its antioxidant properties. In addition, two separate micellar solutions (“Vit A” and “Vit B”, see Table 9) comprising certain vitamins to be assessed with regard to degradation (B3, B6, B8, B9, B12, C) but formulated with different excipients as micellization agents were tested for vitamin B12 stability. Vit A consisted of a solution of mixed micelles with ascorbyl palmitate as a potential stability enhancer. Vit B was formulated with a mix of polysorbates, PEG and sorbitol to form micelles. The micellar solutions were prepared by mixing, under high speed, a solution composed of glycocholic acid and lecithins dissolved in water. In case of Vit B, the glycocholic acid and lecithin were replaced by PEG and polysorbate. All formulations were provided in standard flexible containers and overpouched with an aluminum overpouch for subsequent sterilization. For an overview over formulations and conditions see Table 9.
All samples were submitted to two different sterilization technologies. Steam sterilization targeting a F0=8 min was used for large volumes (400/800 ml, Cycle 2) and for small volumes (25/50 ml, Cycle 1) as lined out in Table 9 above. The same samples were sterilized by water spray sterilization with a serial tower continuous sterilization equipment with two different exposure times (Cycles 3 (25 min.) and 4 (19 min.)).
The vitamin recovery was then compared between the different sterilization cycles and formulations to understand the impact of the formulation and the sterilization technology used on their respective short- and long-term stability. Therefore, after sterilization, the samples were stored at 40° C./25% RH for 6 months to evaluate the recovery of vitamin B12 at T1M, T3M and T6M. Besides, backup samples were stored at 5° C. Finally, some samples were also stored at 25° C./40% RH to provide for real time stability data.

[4] = Impact of DO on selenium stability; mix of 9 trace elements; format: physicochemical; settings: sterilized samples stored at 40° C., FIG. 5
Method: The impact of oxygen seems of major importance in the stability of selenite containing trace element formulations. […] To confirm this hypothesis, a regression test was performed between Se assay results and log(dissolved oxygen results). Only sterilized samples stored at 40° C. were considered as the sterilization and storage at high temperature seem to both increase the Se degradation.
The presence of oxygen promotes selenite stability. To ensure that it is not deleterious to another TE the stability of a mix of the 9 TE of interest (i.e. Zn, Cu, Cr, Mo, Mn, Fe, I, F & Se) was evaluated at pH 2.2 with 200 mM of malic acid (to ensure iodide stability) and stored in a glass bottle (so containing about 3 ppm of dissolved oxygen). The solution was heat sterilized and stored 6 months at 40° C. or 5° C. (T6M 40° C. and T6M 5° C., respectively).

[5] = Storage of Glucose Batch 1 at 40° C./25% RH for 6 months; format: physicochemical; settings: sterilization cycles of Example 7
Method: In a next step, the stability of vitamin B12 was examined in Glucose Batch 1 which seemed to be the most promising based on the results shown in Table 7. Accordingly, several bags were stored at 40° C./25% RH for 6 months (T6M). Batch Glucose 1 was analyzed at T6M to revisit the presence of vitamin B12 in either its cyanocobalamin or hydroxocobalamin form. In order to test the validity of the test, vitamins B1, B3 and B6 were tested together with vitamin B12 both after sterilization and then throughout shelf life.

[6] = pediatric PN formulation stored at 25° C.; cited from earlier work
[7] = 25 ml, Cycle 1 steam sterilization
[8] = 800 ml, Cycle 2 steam sterilization
[9] = 800 ml, Cycle 3 water spray sterilization
[10] = 800 ml, Cycle 4 water spray sterilization

Compound: C/C1=C2/[N-][C@H]([C@H](CC(N)=O)[C@@]2(C)CCC(=O)NC[C@@H](C)OP(=O)([O-])O[C@H]2[C@@H](O)[C@@H](n3cnc4cc(C)c(C)cc43)O[C@@H]2CO)[C@]2(C)N=C(/C(C)=C3N=C(/C=C4N=C1[C@@H](CCC(N)=O)C\4(C)C)[C@@H](CCC(N)=O)[C@]\3(C)CC(N)=O)[C@@H](CCC(N)=O)[C@]2(C)CC(N)=O.[Co+3].[OH-] [B12 HC, hydroxocobalamin]
time remaining relatively stable ([1]; at 40° C.): about 6 months

selenium concentration during storage [2]: remained stable
Compound: C[Se]CC[C@H](N)C(=O)O [selenomethionine]

detection of cyanocobalamin after 6 months ([3]; standard PN glucose solution, Cycles 1 and 2 (steam sterilization), FIG. 4): no cyanocobalamin can be detected
detection of cyanocobalamin ([1]; T3M40° C. (storage for 3 months at 40° C.)): no more cyanocobalamin can be detected
Compound: cyanocobalamin [B12 CC]

Compound: O=[Se](O)O [selenite, sodium selenite]
oxygen amount sufficient to ensure stability in the trace element formulation [4]: around 0.5 ppm
stability after three months ([2]; TE solution pH 2.2 (malic acid), terminal heat sterilization, DO not strictly controlled, analysis stopped): lack of stability

degradation during sterilization [5]: no significant degradation
Unsterilized T0 concentration ([3]; 25 ml (Table 10A)): 51.10 mg/L
T1M40° C. concentration [3, 7]: 49.30 mg/L
T3M40° C. concentration [3, 7]: 50.20 mg/L
Unsterilized T0 concentration ([3]; 800 ml (Table 10B)): 51.10 mg/L
Unsterilized T0 concentration ([3]; 800 ml (Table 11A)): 52.80 mg/L
Unsterilized T0 concentration ([3]; 800 ml (Table 11B)): 52.80 mg/L
T1M40° C. concentration [3, 8]: 50.60 mg/L
T3M40° C. concentration [3, 8]: 51.20 mg/L
Cycle 3 T0 concentration [3, 9]: 50.50 mg/L
T3M40° C. concentration [3, 9]: 50.30 mg/L
T6M40° C. concentration [3, 9]: 48.27 mg/L
Cycle 4 T0 concentration [3, 10]: 50.40 mg/L
T3M40° C. concentration [3, 10]: 51.00 mg/L
T6M40° C. concentration [3, 10]: 49.35 mg/L
Compound: NC(=O)c1cccnc1 [Batch B3, Nicotinamide]

degradation during sterilization [5]: no significant degradation
Unsterilized T0 concentration ([3]; 25 ml (Table 10A)): 6.40 mg/L
T1M40° C. concentration [3, 7]: 6.40 mg/L
T3M40° C. concentration [3, 7]: 6.50 mg/L
Unsterilized T0 concentration ([3]; 800 ml (Table 10B)): 6.40 mg/L
Unsterilized T0 concentration ([3]; 800 ml (Table 11A)): 6.61 mg/L
Unsterilized T0 concentration ([3]; 800 ml (Table 11B)): 6.61 mg/L
T1M40° C. concentration [3, 8]: 5.93 mg/L
T3M40° C. concentration [3, 8]: 6.00 mg/L
Cycle 3 T0 concentration [3, 9]: 6.23 mg/L
T3M40° C. concentration [3, 9]: 6.10 mg/L
T6M40° C. concentration [3, 9]: 6.04 mg/L
Cycle 4 T0 concentration [3, 10]: 6.27 mg/L
T3M40° C. concentration [3, 10]: 5.90 mg/L
T6M40° C. concentration [3, 10]: 6.03 mg/L
Compound: Cc1ncc(CO)c(CO)c1O [Batch B6, pyridoxine]

degradation during sterilization [5]: no significant degradation
Compound: Cc1ncc(C[n+]2csc(CCO)c2C)c(N)n1 [Batch B1, thiamine]

Compound: O=C1O[C@H]([C@@H](O)CO)C(O)=C1O [vitamin C, ascorbic acid]
time after which instability was presented [6]: 48 h

Compound: O=[Se](=O)(O)O [Selenate, sodium selenate]
selenium concentration during storage [2]: remained stable
